# Laboratory results published in ChEMBL document CHEMBL1144453, “Ligand binding analysis for human alpha5beta1 integrin: strategies for designing new alpha5beta1 integrin antagonists” (J Med Chem, 2005).
# Columns and labels:
# [1] = biological target: Integrin alpha-IIb/beta-3 (Homo sapiens, UniProt P05106+P08514); experiment: Inhibition of alpha IIb beta3 integrin receptor in human platelet rich plasma
# Integrin alpha-V/beta-3 = Integrin alpha-V/beta-3 (Homo sapiens, UniProt P05106+P06756); experiment: Inhibition of fibrinogen binding to alphaV-beta3 integrin receptor; assay type: protein-complex assay
# Integrin alpha-5/beta-1 = Integrin alpha-5/beta-1 (Homo sapiens, UniProt P05556+P08648); experiment: Inhibition of alpha5-beta1 integrin receptor in ELISA; assay type: protein-complex assay
# Integrin alpha-5/beta-1, sequence (P05556 21-798 limits assumed): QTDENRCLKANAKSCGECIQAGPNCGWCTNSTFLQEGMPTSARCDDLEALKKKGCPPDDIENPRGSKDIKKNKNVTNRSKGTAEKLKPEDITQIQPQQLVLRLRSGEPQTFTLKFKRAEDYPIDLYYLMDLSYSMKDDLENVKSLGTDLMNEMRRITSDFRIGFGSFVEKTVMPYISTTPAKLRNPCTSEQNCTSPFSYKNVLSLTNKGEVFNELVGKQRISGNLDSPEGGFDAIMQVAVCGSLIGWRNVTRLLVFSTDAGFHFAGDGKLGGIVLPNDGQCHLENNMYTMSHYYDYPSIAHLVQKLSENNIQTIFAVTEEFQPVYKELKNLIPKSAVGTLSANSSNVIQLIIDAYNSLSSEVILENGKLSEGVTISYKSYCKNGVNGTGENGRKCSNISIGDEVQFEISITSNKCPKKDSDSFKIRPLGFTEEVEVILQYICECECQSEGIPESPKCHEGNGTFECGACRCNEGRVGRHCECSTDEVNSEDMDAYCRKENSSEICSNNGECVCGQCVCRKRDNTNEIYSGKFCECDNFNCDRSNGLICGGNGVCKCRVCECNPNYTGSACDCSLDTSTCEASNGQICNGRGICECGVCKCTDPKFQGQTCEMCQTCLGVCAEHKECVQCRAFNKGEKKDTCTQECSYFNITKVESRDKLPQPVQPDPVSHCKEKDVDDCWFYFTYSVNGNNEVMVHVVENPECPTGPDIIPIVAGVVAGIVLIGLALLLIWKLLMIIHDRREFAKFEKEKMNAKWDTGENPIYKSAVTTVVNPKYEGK
# Integrin alpha-5/beta-1, sequence (P08648 42-894 limits assumed): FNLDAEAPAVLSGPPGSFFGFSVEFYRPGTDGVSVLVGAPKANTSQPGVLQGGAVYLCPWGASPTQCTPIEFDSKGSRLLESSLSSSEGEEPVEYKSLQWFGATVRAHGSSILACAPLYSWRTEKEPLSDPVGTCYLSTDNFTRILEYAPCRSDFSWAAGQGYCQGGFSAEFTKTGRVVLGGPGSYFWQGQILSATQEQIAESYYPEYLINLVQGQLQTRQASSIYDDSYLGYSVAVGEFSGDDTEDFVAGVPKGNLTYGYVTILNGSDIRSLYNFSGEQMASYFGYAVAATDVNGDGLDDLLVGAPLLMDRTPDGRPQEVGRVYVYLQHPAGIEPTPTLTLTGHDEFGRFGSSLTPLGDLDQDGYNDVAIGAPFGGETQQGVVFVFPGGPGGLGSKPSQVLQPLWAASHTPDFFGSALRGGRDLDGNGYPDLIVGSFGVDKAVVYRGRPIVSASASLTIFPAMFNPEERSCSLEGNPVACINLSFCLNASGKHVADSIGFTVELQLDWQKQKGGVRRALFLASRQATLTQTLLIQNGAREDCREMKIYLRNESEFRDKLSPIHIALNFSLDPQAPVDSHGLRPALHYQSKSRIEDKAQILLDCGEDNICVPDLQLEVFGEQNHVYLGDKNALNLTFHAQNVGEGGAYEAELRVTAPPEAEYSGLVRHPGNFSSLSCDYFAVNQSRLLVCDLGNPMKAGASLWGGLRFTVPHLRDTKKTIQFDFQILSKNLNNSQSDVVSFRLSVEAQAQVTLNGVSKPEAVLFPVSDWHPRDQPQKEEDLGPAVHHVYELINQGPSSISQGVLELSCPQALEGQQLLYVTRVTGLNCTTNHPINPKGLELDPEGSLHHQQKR
# Integrin alpha-5/beta-1, sequence (P08648 895-1049 limits assumed): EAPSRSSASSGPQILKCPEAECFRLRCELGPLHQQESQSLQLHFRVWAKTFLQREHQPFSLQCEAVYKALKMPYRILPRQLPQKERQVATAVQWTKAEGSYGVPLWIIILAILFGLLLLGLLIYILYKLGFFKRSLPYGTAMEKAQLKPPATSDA
# Integrin alpha-V/beta-3, sequence (P05106 27-788 limits assumed): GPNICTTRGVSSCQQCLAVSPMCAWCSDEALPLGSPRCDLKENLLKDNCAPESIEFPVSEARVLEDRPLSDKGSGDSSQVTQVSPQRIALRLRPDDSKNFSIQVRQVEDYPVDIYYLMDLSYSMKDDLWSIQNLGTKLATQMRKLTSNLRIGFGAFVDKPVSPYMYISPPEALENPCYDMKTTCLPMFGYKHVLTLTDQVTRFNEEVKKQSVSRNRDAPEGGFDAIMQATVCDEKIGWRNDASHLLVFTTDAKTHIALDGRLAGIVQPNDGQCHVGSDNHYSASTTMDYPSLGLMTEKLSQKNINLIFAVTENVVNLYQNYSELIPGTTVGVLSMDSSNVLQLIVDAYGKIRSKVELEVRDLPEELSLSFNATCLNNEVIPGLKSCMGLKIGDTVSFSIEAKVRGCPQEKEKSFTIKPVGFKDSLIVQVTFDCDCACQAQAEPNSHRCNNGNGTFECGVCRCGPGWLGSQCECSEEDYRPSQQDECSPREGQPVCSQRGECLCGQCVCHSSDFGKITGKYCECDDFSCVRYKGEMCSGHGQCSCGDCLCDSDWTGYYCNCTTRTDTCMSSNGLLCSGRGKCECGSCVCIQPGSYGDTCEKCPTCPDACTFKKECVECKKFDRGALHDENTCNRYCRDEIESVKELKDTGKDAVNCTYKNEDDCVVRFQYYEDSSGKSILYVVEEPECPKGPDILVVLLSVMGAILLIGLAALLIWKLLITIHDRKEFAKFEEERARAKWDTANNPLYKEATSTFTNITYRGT
# Integrin alpha-V/beta-3, sequence (P06756 31-889 limits assumed): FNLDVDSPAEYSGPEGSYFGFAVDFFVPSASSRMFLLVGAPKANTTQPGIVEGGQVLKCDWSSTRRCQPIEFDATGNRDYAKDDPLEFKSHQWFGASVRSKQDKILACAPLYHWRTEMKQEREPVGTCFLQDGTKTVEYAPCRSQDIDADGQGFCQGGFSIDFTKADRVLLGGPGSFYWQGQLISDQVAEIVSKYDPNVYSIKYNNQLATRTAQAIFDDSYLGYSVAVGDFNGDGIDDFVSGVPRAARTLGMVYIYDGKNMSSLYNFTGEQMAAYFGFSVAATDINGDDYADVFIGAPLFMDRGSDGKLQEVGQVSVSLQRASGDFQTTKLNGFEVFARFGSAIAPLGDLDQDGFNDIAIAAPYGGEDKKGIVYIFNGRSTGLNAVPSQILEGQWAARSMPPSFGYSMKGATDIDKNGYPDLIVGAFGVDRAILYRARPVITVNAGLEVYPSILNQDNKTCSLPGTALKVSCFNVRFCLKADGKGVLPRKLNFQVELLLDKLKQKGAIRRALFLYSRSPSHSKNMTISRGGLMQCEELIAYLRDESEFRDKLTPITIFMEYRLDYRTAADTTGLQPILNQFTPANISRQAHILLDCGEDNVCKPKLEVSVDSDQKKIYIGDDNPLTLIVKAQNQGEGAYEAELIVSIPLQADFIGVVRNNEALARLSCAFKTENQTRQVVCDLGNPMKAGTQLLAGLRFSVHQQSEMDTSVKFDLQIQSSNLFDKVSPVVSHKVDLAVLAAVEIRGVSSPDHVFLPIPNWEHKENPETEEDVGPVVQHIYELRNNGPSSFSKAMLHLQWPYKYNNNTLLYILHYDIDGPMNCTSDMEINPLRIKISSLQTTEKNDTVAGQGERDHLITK
# Integrin alpha-V/beta-3, sequence (P06756 891-1048 limits assumed): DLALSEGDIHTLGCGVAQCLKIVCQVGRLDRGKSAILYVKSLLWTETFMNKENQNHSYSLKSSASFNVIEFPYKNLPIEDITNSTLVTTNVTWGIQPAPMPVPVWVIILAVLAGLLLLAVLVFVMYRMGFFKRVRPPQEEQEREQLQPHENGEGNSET
# Integrin alpha-IIb/beta-3, sequence (P05106 27-788 limits assumed): as the sequence (P05106 27-788 limits assumed) above
# Integrin alpha-IIb/beta-3, sequence (P08514 32-887 limits assumed): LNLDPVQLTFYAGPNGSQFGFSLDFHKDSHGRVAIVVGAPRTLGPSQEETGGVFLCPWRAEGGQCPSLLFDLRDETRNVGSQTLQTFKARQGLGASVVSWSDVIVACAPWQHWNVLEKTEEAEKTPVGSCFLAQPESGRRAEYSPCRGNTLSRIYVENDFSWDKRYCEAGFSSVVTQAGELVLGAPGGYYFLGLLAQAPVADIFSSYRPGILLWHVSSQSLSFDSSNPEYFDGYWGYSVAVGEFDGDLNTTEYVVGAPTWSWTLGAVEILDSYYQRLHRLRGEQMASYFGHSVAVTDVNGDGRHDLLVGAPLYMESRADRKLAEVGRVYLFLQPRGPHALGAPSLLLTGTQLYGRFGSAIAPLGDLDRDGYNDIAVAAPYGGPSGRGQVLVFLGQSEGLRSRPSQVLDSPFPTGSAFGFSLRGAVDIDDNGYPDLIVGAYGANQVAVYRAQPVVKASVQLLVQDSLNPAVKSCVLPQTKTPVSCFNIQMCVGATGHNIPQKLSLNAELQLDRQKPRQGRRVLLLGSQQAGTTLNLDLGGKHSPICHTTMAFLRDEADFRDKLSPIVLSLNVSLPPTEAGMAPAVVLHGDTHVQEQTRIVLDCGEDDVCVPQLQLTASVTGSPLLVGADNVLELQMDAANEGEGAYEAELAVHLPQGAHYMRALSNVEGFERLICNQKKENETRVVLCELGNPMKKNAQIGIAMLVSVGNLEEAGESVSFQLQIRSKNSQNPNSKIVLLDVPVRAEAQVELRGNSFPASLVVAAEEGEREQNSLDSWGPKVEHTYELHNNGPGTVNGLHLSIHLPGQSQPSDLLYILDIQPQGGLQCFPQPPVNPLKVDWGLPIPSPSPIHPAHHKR
# Integrin alpha-IIb/beta-3, sequence (P08514 891-1039 limits assumed): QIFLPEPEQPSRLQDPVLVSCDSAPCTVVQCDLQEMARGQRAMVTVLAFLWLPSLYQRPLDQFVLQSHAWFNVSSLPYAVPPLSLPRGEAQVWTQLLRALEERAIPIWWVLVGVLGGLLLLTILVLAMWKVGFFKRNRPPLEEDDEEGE
IC50 [1] [nM],IC50 (Integrin alpha-V/beta-3) [nM],IC50 (Integrin alpha-5/beta-1) [nM],Structure (SMILES)
1400,180,–,Cc1cc(C)c(S(=O)(=O)N[C@@H](CNC(=O)C2=NO[C@]3(CN[C@H](CNc4ncc[nH]4)C3)C2)C(=O)O)c(C)c1
> 100000,49,–,Cc1cc(C)c(S(=O)(=O)N[C@@H](CNC(=O)C2=NO[C@]3(C2)C[C@@H](CNc2ccccn2)N(C(=O)OCc2ccccc2)C3)C(=O)O)c(C)c1
7300,57,13,Cc1cc(C)c(S(=O)(=O)N[C@@H](CNC(=O)C2=NO[C@]3(C2)C[C@@H](CNC2NC=CN2)N(C(=O)OCc2ccccc2)C3)C(=O)O)c(C)c1
5600,32,–,Cc1cc(C)c(S(=O)(=O)N[C@@H](CNC(=O)C2=NO[C@]3(C2)C[C@@H](CNc2ncc[nH]2)N(C(=O)OCc2cccnc2)C3)C(=O)O)c(C)c1
7300,57,–,COC(=O)N1C[C@@]2(CC(C(=O)NC[C@H](NS(=O)(=O)c3c(C)cc(C)cc3C)C(=O)O)=NO2)C[C@H]1CNc1ncc[nH]1
> 100000,34,–,COC(=O)N1C[C@@]2(CC(C(=O)NC[C@H](NS(=O)(=O)c3c(C)cc(C)cc3C)C(=O)O)=NO2)C[C@H]1CNc1nc2ccccc2[nH]1
> 100000,87,–,CCCCOC(=O)N1C[C@@]2(CC(C(=O)NC[C@H](NS(=O)(=O)c3c(C)cc(C)cc3C)C(=O)O)=NO2)C[C@H]1CNc1nc2ccccc2[nH]1
9200,> 1000,1200,"Cc1cc(C)c(S(=O)(=O)N[C@@H](CNC(=O)C2=NOC3(C2)C[C@@H](CNC2NC=CN2)N(C(=O)OCc2ccccc2)C3)C(=O)O)c(C)c1 (single isomer, unassigned)"
34000,41,–,Cc1cc(C)c(S(=O)(=O)N[C@@H](CNC(=O)C2=NO[C@]3(C2)C[C@@H](CNc2ncc[nH]2)N(C(=O)OCc2ccccc2)C3)C(=O)O)c(C)c1
11000,130,–,CCCCOC(=O)N1C[C@@]2(CC(C(=O)NC[C@H](NS(=O)(=O)c3c(C)cc(C)cc3C)C(=O)O)=NO2)C[C@H]1CNc1ncc[nH]1
